{"source": "paper PMC11477141", "about": "“Chemokine Receptor N-Terminus Charge Dictates Reliance on Post-Translational Modifications for Effective Ligand Capture and Following Boosting by Defense Peptides” (International Journal of Molecular Sciences, 2024)", "key": {"S6S7T16S17AAAA-CCR5": {"test_system": "S6S7T16S17AAAA-CCR5", "test": "BRET CAMYEL Gαi signaling via S6S7T16S17AAAA-CCR5", "type": "cell-based, human", "conditions": "CHO cells, n = 3", "experimental": "(§1) BRET measurements of Gαi signaling and β-arrestin recruitment: Cells were seeded in 6-well plates (500,000 cells/well) and transiently transfected the following day. For BRET measurements of Gαi signaling, cells were transfected with vectors encoding the human chemokine receptors as indicated (160 ng/well) and the CAMYEL sensor (cAMP sensor, YFP-Epac-RLuc) (840 ng/well) using Lipofectamine (6 µL/well). Briefly, DNA was dissolved in 125 µL OPTI-MEM and Lipofectamine was dissolved in 125 µL OPTI-MEM. The DNA and Lipofectamine solutions were combined into a transfection mixture. The transfection mixture was added dropwise to cells incubated in OPTI-MEM (1 mL/well). Transfections were terminated after 5 h by adding 1 mL of fresh culture medium on top of the OPTI-MEM. The following day the cells were loosened from the plates in PBS with 5 mM glucose and subsequently aliquoted in white 96-well iso plates (~25,000 cells/well). […] The BRET signal is determined as the ratio eYFP (530 nm)/Rluc (480 nm).\n(§2) BRET principle with CAMYEL: For quantification of signaling initiated immediately downstream of receptor activation, we used the cAMP binding CAMYEL sensor to perform bioluminescence resonance energy transfer (BRET) based assays. […] The BRET ratio is determined as the ratio between YFP/Rluc, and an increase in BRET ratio indicates a decrease in cAMP and thus increased chemokine receptor activation. […]"}, "CCR5": {"target": "T1, CCR5 (Homo sapiens, UniProt P51681)", "T1 construct": "expressed in transfected cells; host or cells: CHO-K1, CHO-pgsB618 (GAG-minus), HEK293 WT / DeltaSia / sC", "test": "BRET CAMYEL cAMP sensor assay of ligand-induced Gαi signaling via CCR5", "type": "cell-based", "conditions": "n = 3", "experimental": "For quantification of signaling initiated immediate downstream of receptor activation, we used the cAMP binding CAMYEL sensor to perform bioluminescence resonance energy transfer (BRET)-based assays. Shortly, in this assay increased receptor activation leads to an increase in BRET ratio. For detailed information see the Materials and Methods section.\nIn signaling assays testing the boosting ability of basic peptides, transfected cells were aliquoted into 96-well plates in the presence of 10 µM peptide or PBS vehicle. After R-Luc substrate addition, chemokines were added to reach final concentrations ranging from 0–100 nM (0, 0.1, 1, 10, and 100 nM) and forskolin was applied before reading emission at 475 and 525 nm.\nBRET measurements of Gαi signaling and β-arrestin recruitment: Cells were seeded in 6-well plates (500,000 cells/well) and transiently transfected the following day. For BRET measurements of Gαi signaling, cells were transfected with vectors encoding the human chemokine receptors as indicated (160 ng/well) and the CAMYEL sensor (cAMP sensor, YFP-Epac-RLuc) (840 ng/well) using Lipofectamine (6 µL/well). Briefly, DNA was dissolved in 125 µL OPTI-MEM and Lipofectamine was dissolved in 125 µL OPTI-MEM. The DNA and Lipofectamine solutions were combined into a transfection mixture. The transfection mixture was added dropwise to cells incubated in OPTI-MEM (1 mL/well). Transfections were terminated after 5 h by adding 1 mL of fresh culture medium on top of the OPTI-MEM. The following day the cells were loosened from the plates in PBS with 5 mM glucose and subsequently aliquoted in white 96-well iso plates (~25,000 cells/well). When using C21TP variants and defense peptides (hBD2 and histatin), these were added to a final concentration of 10 μM/well, while an equal amount of PBS was added to control cells. The bioluminescence substrate coelenterazine was added to a final conc. of 5 µM. After 10 min, varying ligand concentrations were added. For BRET measurements of Gαi signaling, forskolin was added 5 min after the addition of the ligand, to a final conc. of 5 µM. The plates were kept in the dark at all times. A Perkin Elmer Envision machine was used for measuring the emission signals at 530 and 480 nm. The BRET signal is determined as the ratio eYFP (530 nm)/Rluc (480 nm).\nBRET principle with CAMYEL: For quantification of signaling initiated immediately downstream of receptor activation, we used the cAMP binding CAMYEL sensor to perform bioluminescence resonance energy transfer (BRET) based assays. In this assay we measure changes in intracellular cAMP levels in response to receptor activation. Activation of chemokine receptors lead to a decrease in cAMP through inhibition of adenylate cyclase (AC). In the current setup we initially add forskolin that stimulates AC directly to induce an increase in intracellular cAMP, and we then measure the ability of a ligand (chemokine) to counteract the forskolin-induced increase in cAMP. The cAMP sensor (CAMYEL cAMP sensor, YFP-Epac-RLuc) carries the donor Renilla luciferase (Rluc) and the acceptor YFP. Coelenterazine is a substrate for Rluc that will emit light at around 475 nm upon enzymatic cleavage catalyzed by Rluc. When Rluc and YFP are in close proximity, the energy from the emitted light from coelenterazine can be transferred to YFP, resulting in an excitation of YFP, leading to a BRET signal around 525 nm. EPAC is a cAMP binding protein that changes conformation upon cAMP binding. During low cAMP concentrations, Rluc and YFP are near each other, and a strong BRET signal at 525 nm is obtained. When cAMP levels increase, cAMP will bind to EPAC, creating a conformational change, separating Rluc and YFP, reducing the BRET ratio, and increasing the emission from Rluc at 475 nm. Thus, by measuring the ratio between the cAMP-bound (475 nm) and the cAMP-free (525 nm) state of CAMYEL we obtain a measure of receptor activation. […]"}, "S6S7AA-CCR5": {"test_system": "S6S7AA-CCR5", "test": "BRET CAMYEL Gαi signaling via S6S7AA-CCR5", "type": "cell-based, human", "conditions": "CHO cells, n = 3", "experimental": "as §1, §2"}, "T16S17AA-CCR5": {"test_system": "T16S17AA-CCR5", "test": "BRET CAMYEL Gαi signaling via T16S17AA-CCR5", "type": "cell-based, human", "conditions": "CHO cells, n = 3", "experimental": "as §1, §2"}, "Y14Y15AA-CCR5": {"test_system": "Y14Y15AA-CCR5", "test": "BRET CAMYEL Gαi signaling via Y14Y15AA-CCR5", "type": "cell-based, human", "conditions": "CHO cells, n = 3", "experimental": "as §1, §2"}, "[1]": {"conditions": "CHO-K1 cells, 10 µM peptide, chemokine 0-100 nM"}, "[2]": {"conditions": "HEK293 WT, DeltaSia and sC cells, 10 µM peptide"}, "[3]": {"conditions": "M1-tagged CCR5, HEK293 WT, DeltaSia and sC cells, 10 µM peptide"}}, "note": "Where no end group is shown, it is not given here.", "data": [{"substance": "CCL5: human chemokine from Peprotech, overall basic", "values": [{"measurement": "Gαi signaling via S6S7T16S17AAAA-CCR5 compared to WT-CCR5", "setting": "S6S7T16S17AAAA-CCR5", "value": "completely abolished"}, {"measurement": "LogEC50 of CCL5-induced Gαi signaling via CCR5", "setting": "CCR5; CHO GAG-plus (WT CHO-K1) cells, CCL5 alone without peptide", "value": "−7.522 ± 0.639"}, {"measurement": "Gαi signaling via CCR5 in DeltaSia cells compared to WT cells", "setting": "CCR5; HEK293 DeltaSia (ST3GAL1/2 KO)", "value": "significantly impaired"}, {"measurement": "Gαi signaling via CCR5 in DeltaSia and sC cells", "setting": "CCR5; HEK293 DeltaSia and sC, CCL5 oligomerization variants experiment", "value": "very low"}, {"measurement": "Gαi signaling via CCR5 in sC cells compared to WT cells", "setting": "CCR5; HEK293 sC (C1GALT1 KO)", "value": "almost abolished"}, {"measurement": "Gαi signaling via M1-CCR5 in DeltaSia and sC cells compared to WT cells", "setting": "CCR5; M1-tagged CCR5, HEK293 DeltaSia and sC", "value": "drastically reduced"}, {"measurement": "Gαi signaling via S6S7AA-CCR5 compared to WT-CCR5", "setting": "S6S7AA-CCR5", "value": "significantly reduced"}, {"measurement": "Gαi signaling via T16S17AA-CCR5 compared to WT-CCR5", "setting": "T16S17AA-CCR5", "value": "improved"}, {"measurement": "Gαi signaling via Y14Y15AA-CCR5 compared to WT-CCR5", "setting": "Y14Y15AA-CCR5", "value": "completely abolished"}]}, {"substance": "RKDRGASKTGKKGKGSKGCKRTERSQTPKGP [C21TP^81-111]", "values": [{"measurement": "boosting of CCL5 signaling via S6S7T16S17AAAA receptor variant", "setting": "S6S7T16S17AAAA-CCR5; 10 µM peptide", "value": "not in S6S7T16S17AAAA"}, {"measurement": "boosting of CCL5 signaling via CCR5 in GAG-plus (WT) and GAG-minus cells", "setting": "CCR5; CHO GAG-plus and CHO GAG-minus (CHO-pgsB618) cells, 10 µM peptide", "value": "boosted"}, {"measurement": "boosting of CCL5-induced Gαi signaling via CCR5", "setting": "CCR5; [1]", "value": "boosted"}, {"measurement": "boosting of CCL8-induced Gαi signaling via CCR5", "setting": "CCR5; [1]", "value": "boosted"}, {"measurement": "effect on CCL3-induced Gαi signaling via CCR5", "setting": "CCR5; [1]", "value": "not affected"}, {"measurement": "boosting of signaling by CCL5, E26A and E66A via CCR5", "setting": "CCR5; HEK293 DeltaSia and sC cells, 10 µM peptide", "value": "lost"}, {"measurement": "boosting of signaling by CCL5, E26A and E66A via CCR5", "setting": "CCR5; HEK293 WT cells, 10 µM peptide", "value": "boosting occurs with all three versions of CCL5"}, {"measurement": "boosting of CCL3 signaling via CCR5", "setting": "CCR5; [2]", "value": "absent"}, {"measurement": "boosting of CCL5 signaling via CCR5", "setting": "CCR5; [2]", "value": "observed in all three cell lines"}, {"measurement": "boosting of CCL8 signaling via CCR5", "setting": "CCR5; [2]", "value": "absent"}, {"measurement": "boosting of E66A signaling via CCR5", "setting": "CCR5; HEK293 sC cells, 10 µM peptide", "value": "significantly boosted"}, {"measurement": "boosting of CCL3-induced signaling via M1-CCR5", "setting": "CCR5; [3]", "value": "not boosted"}, {"measurement": "boosting of CCL5-induced signaling via M1-CCR5", "setting": "CCR5; [3]", "value": "boosted"}, {"measurement": "boosting of CCL8-induced signaling via M1-CCR5", "setting": "CCR5; [3]", "value": "not boosted"}, {"measurement": "boosting of CCL5 signaling via S6S7AA receptor variant", "setting": "S6S7AA-CCR5; 10 µM peptide", "value": "maintained"}, {"measurement": "boosting of CCL5 signaling via T16S17AA receptor variant", "setting": "T16S17AA-CCR5; 10 µM peptide", "value": "maintained"}, {"measurement": "boosting of CCL5 signaling via Y1415AA receptor variant", "setting": "Y14Y15AA-CCR5; 10 µM peptide", "value": "maintained"}]}]}
